# From patent US7737146B2, “Compound, useful for pancreatic lipase inhibition and the process for isolation thereof” (Council of Scientific and Industrial Research, priority 2005, dated 2010)
# Entries after “also recorded” stand apart in the source; their conditions may differ.
# Assay: solubility in solvents and buffers
# Assay type: physicochemical
structure (smiles),measurement,setting,value
"CCCCCCCCCCCC/C=C/CCCCC(=O)Oc1nc2ccccc2nc1OP(O)(=S)OCCCCCCCCCCCCCCCC (stereo not shown) [streptolipin, Nonadeca-6-enoic acid-3-(hexadecyloxy-hydroxy-thiophosphoryloxy)-quinoxalin-2-yl ester]",Solubility response,5% acetic acid,Insoluble
same,Solubility response,5% sodium bicarbonate,Insoluble
same,Solubility response,5% sodium hydroxide,Insoluble
same,Solubility response,Acetone,Soluble
same,Solubility response,Acetonitrile,slightly soluble; also recorded: Sparingly soluble
same,Solubility response,Chloroform,Soluble
same,Solubility response,Diethyl ether,slightly soluble; also recorded: Sparingly soluble
same,Solubility response,Dimethyl sulphoxide,Soluble
same,Solubility response,Ethanol,Sparingly soluble
same,Solubility response,Ethyl acetate,slightly soluble; also recorded: Sparingly soluble
same,Solubility response,Hexane,Sparingly soluble
same,Solubility response,Methanol,slightly soluble; also recorded: Sparingly soluble
same,Solubility response,Phosphate buffer (pH 7.4-8.0),Insoluble
same,Solubility response,"acetate buffer (pH 5.0, 6.0)",Insoluble
same,Solubility response,"tris buffer (pH 8.0, 9.0)",Insoluble
same,Solubility response,water,Insoluble
